Test results: patent US20170333591A9, “ABSORBENT ARTICLE COMPRISING MALODOR REDUCTION COMPOSITIONS” (The Procter & Gamble Company, priority 2014, published 2017)

Assay: Log of liquid dish neat product liquid-air partition coefficient
Format: physicochemical
Conditions: for Log of liquid dish neat product liquid-air partition coefficient (Comment Code): code letters K/L of the Comment Code
[1] = code letter within the Comment Code cell
[2] = Comment Code letters K and/or L

SMILES	Log of liquid dish neat product liquid-air partition coefficient (Comment Code)	Comment Code: Log of liquid dish neat product liquid-air partition coefficient	Log of liquid dish neat product liquid-air partition coefficient (Comment Code K/L) [1]	other results
CCCCCC(=O)Oc1ccc(C)cc1 [Material 939]	K (Log of liquid dish neat product liquid-air partition coefficient greater than or equal to 7)	–	–	–
CCOCOC1CCCCCCCCCCC1 [Material 607]	K (Log of liquid dish neat product liquid-air partition coefficient greater than or equal to 7)	–	–	–
CC12CCCC(C)(CC1)C2=NO [Material 921]	–	K (Log of liquid dish neat product liquid-air partition coefficient greater than or equal to 7)	–	–
CCCCCCCC(=O)OCCCCCC [Material 263]	–	–	K (Log of liquid dish neat product liquid-air partition coefficient greater than or equal to 7)	–
CC1=C2CCC3(C)OC3C2C(C)(C)CCC1 (centres unmarked) [Material 624]	K (Log of liquid dish neat product liquid-air partition coefficient greater than or equal to 7)	K (Log of liquid dish neat product liquid-air partition coefficient greater than or equal to 7)	–	–
CCC(C)C(=O)N(C)c1ccccc1 (centres unmarked) [Material 314]	–	K (Log of liquid dish neat product liquid-air partition coefficient greater than or equal to 7)	–	–
CCc1ccc(OC)c(O)c1 [Material 797]	–	K (Log of liquid dish neat product liquid-air partition coefficient greater than or equal to 7)	–	–
C=CCCCCCCCC=CCC#N [Material 137]	–	–	K (Log of liquid dish neat product liquid-air partition coefficient greater than or equal to 7)	–
CC1=CC[C@@H]2C3CC([C@@H]2C1)[C@@]1(C3)OC1C (some centres unmarked) [Material 1007]	K (Log of liquid dish neat product liquid-air partition coefficient greater than or equal to 7)	K (Log of liquid dish neat product liquid-air partition coefficient greater than or equal to 7)	–	–
CC(C)C1=CCC(C)(O)CC1 (centres unmarked) [Material 982]	K (Log of liquid dish neat product liquid-air partition coefficient greater than or equal to 7)	–	–	–
CC1(C)CCc2ccc(CCC=O)cc21 [Material 260]	–	K (Log of liquid dish neat product liquid-air partition coefficient greater than or equal to 7)	K (Log of liquid dish neat product liquid-air partition coefficient greater than or equal to 7)	–
CC1=CC(C)C2(CCCC(C)(C)C2=O)CC1 (centres unmarked) [Material 1022]	K (Log of liquid dish neat product liquid-air partition coefficient greater than or equal to 7)	K (Log of liquid dish neat product liquid-air partition coefficient greater than or equal to 7)	–	–
CC(=O)OCC=Cc1ccccc1 [Material 553]	–	–	K (Log of liquid dish neat product liquid-air partition coefficient greater than or equal to 7)	–
CC1=C2CC(C(C)(C)O)CCC2(C)CCC1 (centres unmarked) [Material 872]	K (Log of liquid dish neat product liquid-air partition coefficient greater than or equal to 7)	K (Log of liquid dish neat product liquid-air partition coefficient greater than or equal to 7)	–	–
CC=CC(=O)C1C(C)=CCCC1(C)C (centres unmarked) [Material 880]	–	K (Log of liquid dish neat product liquid-air partition coefficient greater than or equal to 7)	–	–
CCCCCCCCC1CCC(=O)O1 (centres unmarked) [Material 330]	–	–	K (Log of liquid dish neat product liquid-air partition coefficient greater than or equal to 7)	–
C=C(C)C1CC=C(CO)CC1 (centres unmarked) [Material 948]	K (Log of liquid dish neat product liquid-air partition coefficient greater than or equal to 7)	–	–	–
C=CC(=C)CCC=C(C)CCC=C(C)C [Material 628]	K (Log of liquid dish neat product liquid-air partition coefficient greater than or equal to 7)	–	–	–
COc1cc(C)ccc1O [Material 492]	–	K (Log of liquid dish neat product liquid-air partition coefficient greater than or equal to 7)	–	–
CC1C(C)(C)C2CCC3CC(C)(C)OC3C2C1(C)C (centres unmarked) [Material 679]	K (Log of liquid dish neat product liquid-air partition coefficient greater than or equal to 7)	K (Log of liquid dish neat product liquid-air partition coefficient greater than or equal to 7)	–	–
OCC=Cc1ccccc1 [Material 555]	–	–	K (Log of liquid dish neat product liquid-air partition coefficient greater than or equal to 7)	–
CC(C)=CCCC(C)CCCC(C)C=O (centres unmarked) [Material 757]	K (Log of liquid dish neat product liquid-air partition coefficient greater than or equal to 7)	–	–	–
CC=CC(=O)C1C(C)=CCCC1(C)C (centres unmarked) [Material 1074]	–	K (Log of liquid dish neat product liquid-air partition coefficient greater than or equal to 7)	–	–

SMILES	Log of liquid dish neat product liquid-air partition coefficient (Comment Code)	Comment Code: Log of liquid dish neat product liquid-air partition coefficient	Log of liquid dish neat product liquid-air partition coefficient (Comment Code K/L) [1]	other results
C=C(OCC)C1C(C)(C)CC(=O)CC1(C)C [Material 182]	–	–	K (Log of liquid dish neat product liquid-air partition coefficient greater than or equal to 7)	–
CCCC(=O)OC(C)(C)Cc1ccccc1 [Material 432]	–	–	K (Log of liquid dish neat product liquid-air partition coefficient greater than or equal to 7)	–
C=CC(=C)CCC=C(C)CCC=C(C)C=O [Material 613]	K (Log of liquid dish neat product liquid-air partition coefficient greater than or equal to 7)	–	–	–
CCCCCC1C(=O)CCC1CC(=O)OC (centres unmarked) [Material 113]	–	–	K (Log of liquid dish neat product liquid-air partition coefficient greater than or equal to 7)	–
C=CC(C)=CCCC(C)(C)O [Material 43]	–	–	K (Log of liquid dish neat product liquid-air partition coefficient greater than or equal to 7)	–
COc1ccccc1-c1ccccc1 [Material 22]	–	–	K (Log of liquid dish neat product liquid-air partition coefficient greater than or equal to 7)	–
CC(C)=CCCC(C)=CCC1CCCC1=O (racemic) [Material 307]	–	–	K (Log of liquid dish neat product liquid-air partition coefficient greater than or equal to 7)	–
CC(C)C1OCCC2(CC3CCC2(C)C3(C)C)O1 (centres unmarked) [Material 659]	K (Log of liquid dish neat product liquid-air partition coefficient greater than or equal to 7)	K (Log of liquid dish neat product liquid-air partition coefficient greater than or equal to 7)	–	–
CC1=CCC(C)C(C)C12C=CC(C)O2 (centres unmarked) [Material 192]	–	–	K (Log of liquid dish neat product liquid-air partition coefficient greater than or equal to 7)	–
CC(=O)CCCC(C)CCCC(C)CCCC(C)C (centres unmarked) [Material 782]	K (Log of liquid dish neat product liquid-air partition coefficient greater than or equal to 7)	–	–	–
C=CCCC(=O)C1=CCCC(C)(C)C1 [Material 697]	K (Log of liquid dish neat product liquid-air partition coefficient greater than or equal to 7)	–	–	–
CCCCCCCCCCCC(OC)OC [Material 421]	–	–	K (Log of liquid dish neat product liquid-air partition coefficient greater than or equal to 7)	–
CC(O)CCC1CCCCC1 (centres unmarked) [Material 699]	–	K (Log of liquid dish neat product liquid-air partition coefficient greater than or equal to 7)	–	–
CC(C)C(=O)OC1CC2CCC1(C)C2(C)C (centres unmarked) [Material 603]	K (Log of liquid dish neat product liquid-air partition coefficient greater than or equal to 7)	K (Log of liquid dish neat product liquid-air partition coefficient greater than or equal to 7)	–	–
COc1ccc(CCC(C)=O)cc1 [Material 803]	K (Log of liquid dish neat product liquid-air partition coefficient greater than or equal to 7)	–	–	–
CC1(C)C2CCC3(C2)C1C1(CCC3(C)C)OCCO1 (centres unmarked) [Material 1145]	–	K (Log of liquid dish neat product liquid-air partition coefficient greater than or equal to 7)	–	Log of liquid dish neat product liquid-air partition coefficient (Comment Code K/L) [2]: K (Log of liquid dish neat product liquid-air partition coefficient greater than or equal to 7)
CCCC(=O)OCCc1ccccc1 [Material 831]	K (Log of liquid dish neat product liquid-air partition coefficient greater than or equal to 7)	–	–	–
COC1(OC)CCCCCCCCCCC1 [Material 10]	–	–	K (Log of liquid dish neat product liquid-air partition coefficient greater than or equal to 7)	–
C[C@@H]1CC[C@H]2[C@@H]1[C@H]1[C@@H](CC[C@]2(C)O)C1(C)C [Material 1140]	–	K (Log of liquid dish neat product liquid-air partition coefficient greater than or equal to 7)	–	Log of liquid dish neat product liquid-air partition coefficient (Comment Code K/L) [2]: K (Log of liquid dish neat product liquid-air partition coefficient greater than or equal to 7)
CCC(=O)OC1CC2CC1C1CC=CC21 (centres unmarked) [Material 919]	K (Log of liquid dish neat product liquid-air partition coefficient greater than or equal to 7)	K (Log of liquid dish neat product liquid-air partition coefficient greater than or equal to 7)	–	–
CC1=CCCC(C)=CCC(C)(C)C=CC1 [Material 706]	K (Log of liquid dish neat product liquid-air partition coefficient greater than or equal to 7)	–	–	–
CC(C)=CCCC1=CCC(C=O)CC1 (centres unmarked) [Material 211]	–	–	K (Log of liquid dish neat product liquid-air partition coefficient greater than or equal to 7)	–
